In PMC9057082 (RSC Advances, 2020):

Assay: Total antioxidant capacity
Assay type: biochemical
Conditions: residual hydrogen peroxide measured at 505 nm; mean ± standard deviation

With O=C1O[C@H]([C@@H](O)CO)C(O)=C1O [Ascorbic acid] the “Total anti-oxidant activity IC50” value was 174.8 ± 12.3 mg/L.
